In patent US20240083857A1, “2-Methyl-Quinazolines” (Bayer Pharma Aktiengesellschaft, priority 2017, published 2024):
Like-named read-outs stand apart in the source and are kept apart here.

Tests used:
[1] = molecular target: K-Ras^G12C : hSOS1 interaction (Homo sapiens, UniProt Q07889); assay: Biochemical assay 1: K-Ras^G12C interaction assay with hSOS1 (HTRF); type: binding
[2] = molecular target: human SOS1 (loading of human K-Ras^G12C-GDP with fluorescent GTP-analog) (Homo sapiens, UniProt Q07889); assay: Biochemical assay 3: K-Ras^G12C activation assay by hSOS1 (HTRF)
[3] = molecular target: Epidermal Growth Factor Receptor (EGFR) (Homo sapiens (Human), UniProt P00533); assay: EGFR kinase assay (TR-FRET); type: biochemical
Text: EGFR inhibitory activity of compounds of the present invention was quantified employing the TR-FRET based EGFR assay as described in the following paragraphs.
Epidermal Growth Factor Receptor (EGFR) affinity purified from human carcinoma A431 cells (Sigma-Aldrich, #E3641) was used as kinase. As substrate for the kinase reaction the biotinylated peptide biotin-Ahx-[…] (SEQ ID NO 5) (C-terminus in amid form) was used which can be purchased e.g. form the company Biosyntan GmbH (Berlin-Buch, Germany).
For the assay 50 nL of a 100 fold concentrated solution of the test compound in DMSO was pipetted into a black low volume 384 well microtiter plate (Greiner Bio-One, Frickenhausen, Germany), 2 μL of a solution of EGFR in aqueous assay buffer [50 mM Hepes/HCl pH 7.0, 1 mM MgCl2, 5 mM MnCl2, 0.5 mM activated sodium ortho-vanadate, 0.005% (v/v) Tween-20]were added and the mixture was incubated for 15 min at 22° C. to allow pre-binding of the test compounds to the enzyme before the start of the kinase reaction. […] The concentration of EGFR was adjusted depending of the activity of the enzyme lot and was chosen appropriate to have the assay in the linear range, typical concentration were about 3 U/ml. The reaction was stopped by the addition of 5 μl of a solution of HTRF detection reagents (0.1 μM streptavidine-XL665 [Cis Biointernational] and 1 nM PT66-Tb-Cryptate, an terbium-cryptate labelled anti-phospho-tyrosine antibody from Cis Biointernational [instead of the PT66-Tb-cryptate PT66-Eu-Chelate from Perkin Elmer can also be used]) in an aqueous EDTA-solution (80 mM EDTA, 0.2% (w/v) bovine serum albumin in 50 mM HEPES pH 7.5).
The resulting mixture was incubated 1 h at 22° C. to allow the binding of the biotinylated phosphorylated peptide to the streptavidine-XL665 and the PT66-Eu-Chelate. Subsequently the amount of phosphorylated substrate was evaluated by measurement of the resonance energy transfer from the PT66-Tb-Cryptate to the streptavidine-XL665. Therefore, the fluorescence emissions at 620 nm and 665 nm after excitation at 337 nm were measured in a HTRF reader, e.g. a Pherastar (BMG Labtechnologies, Offenburg, Germany) or a Viewlux (Perkin-Elmer). The ratio of the emissions at 665 nm and at […] was taken as the measure for the amount of phosphorylated substrate.

[4] = molecular target: human SOS1 (nucleotide exchange of K-Ras^G12C) (Homo sapiens, UniProt Q07889); assay: Biochemical assay 2: K-Ras^G12C activation assay by hSOS1 at high GTP concentration (HTRF); conditions: E-notation values; unit inferred; 50 μM GTP; read-out: Assay 2 (KRAS-Activation, high GTP) IC50
[5] = read-out: Assay 1 (KRAS-SOS Interaction) activity expressed as IC50
[6] = no GTP, read-out: Assay 3 (KRAS-Activation by SOS no GTP) activity expressed as IC50
[7] = values given in μM, read-out: EGFR kinase inhibition IC50
[8] = E-notation values, unit inferred, read-out: Assay 3 (KRAS-Activation) IC50
[9] = E-notation values, unit inferred, read-out: EGFR-assay IC50

Sequence of Epidermal Growth Factor Receptor (EGFR) (P00533 25-1210): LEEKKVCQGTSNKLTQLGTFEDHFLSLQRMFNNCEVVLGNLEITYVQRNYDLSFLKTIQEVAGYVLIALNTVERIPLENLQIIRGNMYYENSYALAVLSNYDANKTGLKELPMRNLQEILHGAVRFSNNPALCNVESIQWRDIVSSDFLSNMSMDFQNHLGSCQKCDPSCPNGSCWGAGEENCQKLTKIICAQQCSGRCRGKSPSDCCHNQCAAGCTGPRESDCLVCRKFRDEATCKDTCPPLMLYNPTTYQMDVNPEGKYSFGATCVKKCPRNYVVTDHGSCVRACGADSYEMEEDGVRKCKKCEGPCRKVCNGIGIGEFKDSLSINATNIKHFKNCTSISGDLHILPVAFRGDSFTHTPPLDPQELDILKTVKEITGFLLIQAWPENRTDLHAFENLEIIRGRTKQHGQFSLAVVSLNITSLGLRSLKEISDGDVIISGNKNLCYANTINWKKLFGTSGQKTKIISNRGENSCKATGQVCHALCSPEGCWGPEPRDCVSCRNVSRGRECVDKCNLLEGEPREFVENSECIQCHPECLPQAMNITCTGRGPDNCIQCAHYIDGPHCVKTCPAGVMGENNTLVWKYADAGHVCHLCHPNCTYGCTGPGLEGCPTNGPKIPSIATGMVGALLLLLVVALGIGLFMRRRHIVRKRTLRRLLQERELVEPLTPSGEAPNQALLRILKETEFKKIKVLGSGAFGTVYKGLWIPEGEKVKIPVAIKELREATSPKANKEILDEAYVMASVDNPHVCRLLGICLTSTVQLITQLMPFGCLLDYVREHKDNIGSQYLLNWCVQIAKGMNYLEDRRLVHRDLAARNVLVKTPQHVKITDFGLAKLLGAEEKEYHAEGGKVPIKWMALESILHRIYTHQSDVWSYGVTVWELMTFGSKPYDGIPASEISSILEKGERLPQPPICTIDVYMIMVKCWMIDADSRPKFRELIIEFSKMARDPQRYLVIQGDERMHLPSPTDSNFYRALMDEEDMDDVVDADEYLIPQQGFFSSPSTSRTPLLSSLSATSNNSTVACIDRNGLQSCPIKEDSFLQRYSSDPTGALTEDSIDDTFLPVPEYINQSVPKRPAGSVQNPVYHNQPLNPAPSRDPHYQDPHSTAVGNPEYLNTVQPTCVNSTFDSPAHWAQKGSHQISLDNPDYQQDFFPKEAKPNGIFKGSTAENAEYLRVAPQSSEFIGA

COc1cc2nc(C)nc(NC(C)c3cccc4ncccc34)c2cc1OC (stereo not drawn) [Example 212, 6,7-dimethoxy-2-methyl-N-[1-(quinolin-5-yl)ethyl]quinazolin-4-amine]
IC50 [1, 5]: 0.646 µM | IC50 [2, 6]: 2.64 µM | IC50 [3, 7]: > 20 µM

COc1cc2nc(C)nc(NC(C)c3csc(C)n3)c2cc1OC (stereo not drawn) [Example 444]
IC50 [2, 8]: > 20 µM | IC50 [3, 9]: > 20 µM | IC50 [4]: > 20 µM

COc1cc2nc(C)nc(NC(C)c3ccc(-c4ccc(CNC(=O)OC(C)(C)C)s4)s3)c2cc1OC (stereo not drawn) [Example 447, tert-butyl [(5′-{1-[(6,7-dimethoxy-2-methylquinazolin-4-yl)amino]ethyl}-2,2′-bithiophen-5-yl)methyl]carbamate]
IC50 [2, 8]: > 20 µM | IC50 [3, 9]: > 20 µM | IC50 [4]: > 20 µM

COc1cc2nc(C)nc(NC(C)c3ccc(Br)s3)c2cc1OC (stereo not drawn) [Example 209, N-[1-(5-bromothiophen-2-yl)ethyl]-6,7-dimethoxy-2-methylquinazolin-4-amine]
IC50 [1, 5]: 1.08 µM | IC50 [2, 6]: 4.95 µM | IC50 [3, 7]: > 20 µM

Cc1nc(NC(C)c2ccc(Br)s2)c2cc([N+](=O)[O-])ccc2n1 (stereo not drawn) [Example 452, N-[1-(5-bromothiophen-2-yl)ethyl]-2-methyl-6-nitroquinazolin-4-amine]
IC50 [2, 8]: > 20 µM | IC50 [3, 9]: > 20 µM | IC50 [4]: > 20 µM

Cc1nc(NC(C)c2ccc(-c3ccccc3CN(C)C)s2)c2cc([N+](=O)[O-])ccc2n1 (stereo not drawn) [Example 421, N-[1-(5-{2-[(dimethylamino)methyl]phenyl}thiophen-2-yl)ethyl]-2-methyl-6-nitroquinazolin-4-amine]
IC50 ([1]; E-notation values, unit inferred, read-out: Assay 1 (KRAS-SOS interaction) IC50): 0.145 µM | IC50 [3, 9]: > 20 µM | IC50 [4]: 0.222 µM

COc1cc2nc(C)nc(N[C@H](C)c3cccc(-c4cn[nH]c4)c3)c2cc1OCCS(C)(=O)=O [Example 448, 7-methoxy-2-methyl-6-[2-(methylsulfonyl)ethoxy]-N-{(1R)-1-[3-(1H-pyrazol-4-yl)phenyl]ethyl}quinazolin-4-amine]
IC50 [2, 8]: > 20 µM | IC50 [3, 9]: > 20 µM | IC50 [4]: > 20 µM

COc1cc2nc(C)nc(NC(C)c3nc(C)cs3)c2cc1OC (stereo not drawn) [Example 445, 6,7-dimethoxy-2-methyl-N-[1-(4-methyl-1,3-thiazol-2-yl)ethyl]quinazolin-4-amine]
IC50 [2, 8]: > 20 µM | IC50 [3, 9]: > 20 µM | IC50 [4]: > 20 µM

COC(=O)c1ccc2c(N[C@H](C)c3cccc(Cl)c3)nc(C)nc2c1 [Example 453, methyl 4-{[(1R)-1-(3-chlorophenyl)ethyl]amino}-2-methylquinazoline-7-carboxylate]
IC50 [2, 8]: > 20 µM | IC50 [3, 9]: > 20 µM | IC50 [4]: > 20 µM

COc1cc2nc(C)nc(NC(C)c3ccc(Br)o3)c2cc1OC (stereo not drawn) [Example 208, N-[1-(5-bromofuran-2-yl)ethyl]-6,7-dimethoxy-2-methylquinazolin-4-amine]
IC50 [1, 5]: 5.97 µM | inhibition at 20 µM ([2]; read-out: Assay 3 (KRAS-Activation by SOS no GTP) activity expressed as % inhibition at 20 μM, no GTP, at 20 μM): 47% | IC50 [3, 7]: > 20 µM

COc1cc2nc(C)nc(NC(C)c3ccc(-c4cc(C(=O)O)n(C)n4)s3)c2cc1OC (stereo not drawn) [Example 446, 3-(5-{1-[(6,7-dimethoxy-2-methylquinazolin-4-yl)amino]ethyl}thiophen-2-yl)-1-methyl-1H-pyrazole-5-carboxylic acid]
IC50 [2, 8]: > 20 µM | IC50 [3, 9]: > 20 µM | IC50 [4]: > 20 µM

COc1cc2nc(C)nc(NC(C)c3ccc(-c4cccc(Cl)c4CNC(=O)OC(C)(C)C)s3)c2cc1OC (stereo not drawn) [Example 450, tert-butyl [2-chloro-6-(5-{1-[(6,7-dimethoxy-2-methylquinazolin-4-yl)amino]ethyl}-thiophen-2-yl)benzyl]carbamate]
IC50 [2, 8]: > 20 µM | IC50 [3, 9]: > 20 µM | IC50 [4]: > 20 µM
